Results published in US10570122B2, “Compounds with anti-tumoral activity” (AB Science, priority 2015, dated 2020).

How the values were obtained:
[1] = system: HL60; test: CellTiter-Blue cell-based survival/proliferation assay, HL60; conditions: Homo sapiens, HL-60, Leukemia cell line HL60, 48 h, read-out: Anti-tumoral activity (measured IC50) HL60
In short: (§1)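 Compounds, diluted tenfold serially over 0–10 μM, are applied to 1·10^4 seeded cells per well for 48 h at 37 °C. Resorufin formed during a further 4 h with CellTiter-Blue is detected by fluorescence emission at 590 nm.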

[2] = system: HUT78; test: CellTiter-Blue cell-based survival/proliferation assay, HUT78; conditions: Homo sapiens, Lymphoma cell line HUT78, 48 h, read-out: Anti-tumoral activity (measured IC50) HUT78
Method: (§2) Cell-Based Proliferation Screening of Compounds
(§3) CellTiter-Blue cell-based survival/proliferation assay (Promega G8080) was performed on tumor cell lines. A total of 1·10^4 cells/well/50 μl were seeded in a 96-wells plate. Treatment was initiated by addition of a 2× drug solution of 1/10 serial dilutions ranging from 0 to 10 μM. Cells were grown for 48 h at 37° C. and then incubated with 10 μl/well of Promega CellTiter-Bleue reagent for 4 h at 37° C. The amount of resorufin dye formed was quantified by its fluorescence emission at 590 nm using a scanning multiwell spectrophotometer (OPTIMA, BMG labtech, France). A blank well without cells was used as a background control for the spectrophotometer.

[3] = system: KARPAS299; test: CellTiter-Blue cell-based survival/proliferation assay, KARPAS299; conditions: Homo sapiens, KARPAS-299, Lymphoma cell line KARPAS299, 48 h, read-out: Anti-tumoral activity (measured IC50) KARPAS299
Method: as §2, §3

[4] = system: REC1; test: CellTiter-Blue cell-based survival/proliferation assay, REC1; conditions: Homo sapiens, Lymphoma cell line REC1, 48 h, read-out: Anti-tumoral activity (measured IC50) REC1
Method: as §2, §3

[5] = system: OPM2; test: CellTiter-Blue cell-based survival/proliferation assay, OPM2; conditions: Homo sapiens, OPM-2, Myeloma cell line OPM2, 48 h, read-out: Anti-tumoral activity (measured IC50) OPM2
In short: as §1

[6] = system: A498; test: CellTiter-Blue cell-based survival/proliferation assay, A498; conditions: Homo sapiens; A498 kidney tumor cell line, 48 h
In short: as §1

[7] = system: A549; test: CellTiter-Blue cell-based survival/proliferation assay, A549; conditions: Homo sapiens; A549 lung tumor cell line, 48 h
In short: as §1

[8] = system: ACHN; test: CellTiter-Blue cell-based survival/proliferation assay, ACHN; conditions: Homo sapiens; ACHN kidney tumor cell line, 48 h
In short: as §1

[9] = system: AGS; test: CellTiter-Blue cell-based survival/proliferation assay, AGS; conditions: Homo sapiens; AGS stomach tumor cell line, 48 h
In short: as §1

[10] = system: BT20; test: CellTiter-Blue cell-based survival/proliferation assay, BT20; conditions: Homo sapiens, BT-20; BT20 breast tumor cell line, 48 h
In short: as §1

[11] = system: BXPC3; test: CellTiter-Blue cell-based survival/proliferation assay, BXPC3; conditions: Homo sapiens, BXPC-3; BXPC3 pancreas tumor cell line, 48 h
In short: as §1

[12] = system: CALU6; test: CellTiter-Blue cell-based survival/proliferation assay, CALU6; conditions: Homo sapiens, Calu-6; CALU6 lung tumor cell line, 48 h
In short: as §1

[13] = system: CLS354; test: CellTiter-Blue cell-based survival/proliferation assay, CLS354; conditions: Homo sapiens, CLS-354; CLS354_4 head & neck tumor cell line, 48 h
In short: as §1

[14] = system: DLD1; test: CellTiter-Blue cell-based survival/proliferation assay, DLD1; conditions: Homo sapiens, DLD-1; DLD_1 colorectal tumor cell line, 48 h
In short: as §1

[15] = system: DU145; test: CellTiter-Blue cell-based survival/proliferation assay, DU145; conditions: Homo sapiens, DU-145; DU145 prostate tumor cell line, 48 h
In short: as §1

[16] = system: H1299; test: CellTiter-Blue cell-based survival/proliferation assay, H1299; conditions: Homo sapiens, NCI-H1299; H1299 lung tumor cell line, 48 h
In short: as §1

[17] = system: HCT116; test: CellTiter-Blue cell-based survival/proliferation assay, HCT116; conditions: Homo sapiens, HCT-116; HCT116 colorectal tumor cell line, 48 h
In short: as §1

[18] = system: HEP2; test: CellTiter-Blue cell-based survival/proliferation assay, HEP2; conditions: Homo sapiens, HEp-2; HEP2 head & neck tumor cell line, 48 h
In short: as §1

[19] = system: HEPG2; test: CellTiter-Blue cell-based survival/proliferation assay, HEPG2; conditions: Homo sapiens; HEPG2 liver tumor cell line, 48 h
In short: as §1

[20] = system: HGC27; test: CellTiter-Blue cell-based survival/proliferation assay, HGC27; conditions: Homo sapiens, HGC-27; HGC27 stomach tumor cell line, 48 h
In short: as §1

[21] = system: MDAMB231; test: CellTiter-Blue cell-based survival/proliferation assay, MDAMB231; conditions: Homo sapiens, MDA-MB-231; MDAMB231 breast tumor cell line, 48 h
In short: as §1

[22] = system: MESSA; test: CellTiter-Blue cell-based survival/proliferation assay, MESSA; conditions: Homo sapiens, MES-SA; MESSA ovary tumor cell line, 48 h
In short: as §1

[23] = system: PANC1; test: CellTiter-Blue cell-based survival/proliferation assay, PANC1; conditions: Homo sapiens, PANC-1; PANC_1 pancreas tumor cell line, 48 h
In short: as §1

[24] = system: PC3; test: CellTiter-Blue cell-based survival/proliferation assay, PC3; conditions: Homo sapiens, PC-3; PC3 prostate tumor cell line, 48 h
In short: as §1

[25] = system: PLCPRF5; test: CellTiter-Blue cell-based survival/proliferation assay, PLCPRF5; conditions: Homo sapiens, PLC-PRF-5; PLC_PRF5 liver tumor cell line, 48 h
In short: as §1

[26] = system: SW579; test: CellTiter-Blue cell-based survival/proliferation assay, SW579; conditions: Homo sapiens; SW579 head & neck tumor cell line, 48 h
In short: as §1

[27] = system: TOV112D; test: CellTiter-Blue cell-based survival/proliferation assay, TOV112D; conditions: Homo sapiens; TOV112D ovary tumor cell line, 48 h
In short: as §1

[28] = system: panel of about 34 human tumor cell lines; test: Cell-based proliferation screening on panel of tumor cell lines; conditions: solid tumor cell line, cell line unknown, 48 h, read-out: IC50, solid tumor cell line of column 6 (last section of Table 3)
In short: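 CellTiter-Blue survival assay with 1·10^4 cells/well, each line treated 48 h at 37° C with 1/10 serial dilutions from 0 to 10 μM. Resorufin formed during a 4 h reagent incubation is read by fluorescence at 590 nm. A cell-free blank serves as background.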

Cc1ccc(COCCN)cc1Nc1ncc(-c2ccc(-n3cccn3)cc2)o1 [Example 024, [5-(2-Amino-ethoxymethyl)-2-methyl-phenyl]-[5-(4-pyrazol-1-yl-phenyl)-oxazol-2-yl]-amine]
IC50 [1]: > 1000 nM
IC50 [2]: > 1000 nM
IC50 [3]: > 1000 nM
IC50 [4]: > 1000 nM
IC50 [5]: > 1000 nM
IC50 [6]: > 1000 nM
IC50 [7]: > 1000 nM
IC50 [8]: > 1000 nM
IC50 [9]: > 1000 nM
IC50 [10]: > 1000 nM
IC50 [11]: > 1000 nM
IC50 [12]: > 1000 nM
IC50 [13]: > 1000 nM
IC50 [14]: > 1000 nM
IC50 [15]: > 1000 nM
IC50 [16]: > 1000 nM
IC50 [17]: > 1000 nM
IC50 [18]: > 1000 nM
IC50 [19]: > 1000 nM
IC50 [20]: > 1000 nM
IC50 [21]: > 1000 nM
IC50 [22]: > 1000 nM
IC50 [23]: > 1000 nM
IC50 [24]: > 1000 nM
IC50 [25]: > 1000 nM
IC50 [26]: > 1000 nM
IC50 [27]: > 1000 nM
IC50 [28]: > 1000 nM

CCOCc1ccc(C)c(Nc2ncc(-c3ccc(-n4cncn4)cc3)o2)c1 [Example 034, (5-Ethoxymethyl-2-methyl-phenyl)-[5-(4-[1,2,4]triazol-1-yl-phenyl)-oxazol-2-yl]-amine]
IC50 [1]: > 1000 nM
IC50 [2]: 100 to 500 nM
IC50 [3]: 100 to 500 nM
IC50 [4]: 100 to 500 nM
IC50 [5]: > 1000 nM
IC50 [6]: > 1000 nM
IC50 [7]: > 1000 nM
IC50 [8]: > 1000 nM
IC50 [9]: > 1000 nM
IC50 [10]: > 1000 nM
IC50 [11]: > 1000 nM
IC50 [12]: > 1000 nM
IC50 [13]: 500 to 1000 nM
IC50 [14]: > 1000 nM
IC50 [15]: > 1000 nM
IC50 [16]: > 1000 nM
IC50 [17]: > 1000 nM
IC50 [18]: 500 to 1000 nM
IC50 [19]: > 1000 nM
IC50 [20]: > 1000 nM
IC50 [21]: > 1000 nM
IC50 [22]: > 1000 nM
IC50 [23]: > 1000 nM
IC50 [24]: > 1000 nM
IC50 [25]: > 1000 nM
IC50 [26]: > 1000 nM
IC50 [27]: 500 to 1000 nM
IC50 [28]: > 1000 nM

CCOCc1ccc(C)c(Nc2ncc(-c3ccc(-n4ccnn4)cc3)o2)c1 [Example 035, (5-Ethoxymethyl-2-methyl-phenyl)-[5-(4-[1,2,3]triazol-1-yl-phenyl)-oxazol-2-yl]-amine]
IC50 [1]: > 1000 nM
IC50 [2]: 500 to 1000 nM
IC50 [3]: 500 to 1000 nM
IC50 [4]: 500 to 1000 nM
IC50 [5]: > 1000 nM
IC50 [6]: > 1000 nM
IC50 [7]: > 1000 nM
IC50 [8]: > 1000 nM
IC50 [9]: > 1000 nM
IC50 [10]: > 1000 nM
IC50 [11]: > 1000 nM
IC50 [12]: > 1000 nM
IC50 [13]: > 1000 nM
IC50 [14]: > 1000 nM
IC50 [15]: > 1000 nM
IC50 [16]: > 1000 nM
IC50 [17]: > 1000 nM
IC50 [18]: > 1000 nM
IC50 [19]: > 1000 nM
IC50 [20]: > 1000 nM
IC50 [21]: > 1000 nM
IC50 [22]: > 1000 nM
IC50 [23]: > 1000 nM
IC50 [24]: > 1000 nM
IC50 [25]: > 1000 nM
IC50 [26]: > 1000 nM
IC50 [27]: 500 to 1000 nM
IC50 [28]: > 1000 nM

CCOCc1cc(COCC)cc(Nc2ncc(-c3ccc(-n4cccn4)cc3)o2)c1 [Example 022, (3,5-Bis-(ethoxymethyl)-phenyl)-[5-(4-pyrazol-1-yl-phenyl)-oxazol-2-yl]-amine]
IC50 [1]: > 1000 nM
IC50 [2]: > 1000 nM
IC50 [3]: 100 to 500 nM
IC50 [4]: 500 to 1000 nM
IC50 [5]: 500 to 1000 nM
IC50 [6]: > 1000 nM
IC50 [7]: > 1000 nM
IC50 [8]: > 1000 nM
IC50 [9]: > 1000 nM
IC50 [10]: > 1000 nM
IC50 [11]: > 1000 nM
IC50 [12]: > 1000 nM
IC50 [13]: > 1000 nM
IC50 [14]: > 1000 nM
IC50 [15]: > 1000 nM
IC50 [16]: > 1000 nM
IC50 [17]: > 1000 nM
IC50 [18]: > 1000 nM
IC50 [19]: > 1000 nM
IC50 [20]: > 1000 nM
IC50 [21]: > 1000 nM
IC50 [22]: > 1000 nM
IC50 [23]: > 1000 nM
IC50 [24]: > 1000 nM
IC50 [25]: > 1000 nM
IC50 [26]: > 1000 nM
IC50 [27]: > 1000 nM
IC50 [28]: 500 to 1000 nM

Cc1ccc(COCCO)cc1Nc1ncc(-c2ccc(-n3cccn3)cc2)o1 [Example 026, 2-{4-Methyl-3-[5-(4-pyrazol-1-yl-phenyl)-oxazol-2-ylamino]-benzyloxy}-ethanol]
IC50 [1]: > 1000 nM
IC50 [2]: > 1000 nM
IC50 [3]: > 1000 nM
IC50 [4]: > 1000 nM
IC50 [5]: > 1000 nM
IC50 [6]: > 1000 nM
IC50 [7]: > 1000 nM
IC50 [8]: > 1000 nM
IC50 [9]: > 1000 nM
IC50 [10]: > 1000 nM
IC50 [11]: > 1000 nM
IC50 [12]: > 1000 nM
IC50 [13]: > 1000 nM
IC50 [14]: > 1000 nM
IC50 [15]: > 1000 nM
IC50 [16]: > 1000 nM
IC50 [17]: > 1000 nM
IC50 [18]: > 1000 nM
IC50 [19]: > 1000 nM
IC50 [20]: > 1000 nM
IC50 [21]: > 1000 nM
IC50 [22]: > 1000 nM
IC50 [23]: > 1000 nM
IC50 [24]: > 1000 nM
IC50 [25]: > 1000 nM
IC50 [26]: > 1000 nM
IC50 [27]: > 1000 nM
IC50 [28]: > 1000 nM
